Data reported in article PMC5018819 (Scientific Reports, 2016).
Read-outs that look alike come from different tables or passages of the source.

Experiments:
P. falciparum 3D7 [1] = experiment: ES-MS and ES-MS-MS lipidomic analysis of treated parasites; type: cell-based, Plasmodium falciparum; conditions: EC90 for 3 h; for effect on level of PC species: parents of 184 m/z spectra; for effect on endogenous PE species (in words): quantitative lipidomic analysis
Protocol: After washing, P. falciparum trophozoites were cultured for 18h without inhibitors, collected, treated with saponin to release the parasites from the red blood cells, and washed twice with PBS prior to Bligh & Dyer lipid extraction. Briefly, 5 × 10^8 parasite cells were dissolved in 375 μl 1:2 (v/v) chloroform:methanol and vigorously vortexed for 15 min. 125 μl of chloroform were added and 500 pmols of 1,2-dimyristoyl-sn-glycero-3-phosphocholine and 1,2-dipalmitoyl-sn-glycero-3-phosphoethanolamine were included in each sample as internal controls. 125 μl of water were added to the sample, vortexed and centrifuged at ×1000 g (RT) for 5 min to make the sample biphasic. Lower organic phase was collected and upper (aqueous) phase was re-extracted twice with 125 μls of chloroform. Lipid extracts were pooled, dried under nitrogen and stored at 4 °C for ESI-MS/MS analysis.
Lipid extracts, were dissolved in 15 μl of choloroform:methanol (1:2) and 15 μl of acetonitrile:iso-propanol:water (6:7:2) and analysed with a Absceix 4000 QTrap, a triple quadrupole mass spectrometer equipped with a nanoelectrospray source. Samples were delivered using a Nanomate interface in direct infusion mode (~125 nl/min). The lipid extracts were analysed in both positive and negative ion modes using a capillary voltage of 1.25 kV. MS/MS scanning (daughter, precursor and neutral loss scans) were performed using nitrogen as the collision gas with collision energies between 35–90 V. Each spectrum encompasses at least 50 repetitive scans. Tandem mass spectra (MS/MS) were obtained with collision energies between 35–90 V. Assignment of phospholipid and neutral lipid species is based upon a combination of survey, daughter, precursor and neutral loss scans, as well previous assignments. The identity of phospholipid peaks was verified using the LIPID MAPS: Nature Lipidomics Gateway (www.lipidmaps.org).

PfCK [2] = target: T1, PfCK (Plasmodium falciparum, UniProt Q8IM71); experiment: Kd by tryptophan fluorescence quenching; type: binding; conditions: for Kd: tryptophan fluorescence quenching, 25 °C, enzyme 1 μM
T1 construct: made in house
T1 sequence (Q8IM71 1-440): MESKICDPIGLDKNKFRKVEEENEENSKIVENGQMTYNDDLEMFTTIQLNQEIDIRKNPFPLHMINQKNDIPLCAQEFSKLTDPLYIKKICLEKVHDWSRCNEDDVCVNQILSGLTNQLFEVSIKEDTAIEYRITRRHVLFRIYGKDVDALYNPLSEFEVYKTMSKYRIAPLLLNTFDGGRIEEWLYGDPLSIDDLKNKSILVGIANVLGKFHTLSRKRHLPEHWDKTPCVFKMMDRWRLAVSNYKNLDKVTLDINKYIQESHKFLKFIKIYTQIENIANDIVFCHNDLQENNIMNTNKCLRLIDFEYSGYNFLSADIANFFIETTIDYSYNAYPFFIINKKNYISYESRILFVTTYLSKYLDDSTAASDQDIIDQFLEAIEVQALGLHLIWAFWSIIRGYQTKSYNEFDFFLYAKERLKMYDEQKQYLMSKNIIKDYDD
Protocol: (§1) Compounds BR23 and BR25 were prepared in 100% DMSO. The Kds for compounds BR23 and BR25 against HsCKα1 and PfCK were measured by monitoring the quenching of tryptophan fluorescence. All experiments were carried out in a Cary Eclipse spectrofluorometer at 25 °C with the enzymes at 1 μM, and concentrations of compounds varying from 0.05 to 8 μM for HsCKα1, and from 0.05 to 16 μM for PfCK in 25 mM Tris, 150 mM NaCl, pH 7.5. Fluorescence emission spectra were recorded in the 300–400 nm range with an excitation wavelength of 280 nm, with slit width of 5 nm. Controls were determined by incubating the enzymes with equivalent amounts of DMSO. As indicated previously, data analysis was performed in Prism (GraphPad software) considering a model with a single binding site (Eq. 1), where F0 is the intrinsic fluorescence of the enzyme in the absence of quencher (Q), F1 is the observed fluorescence at a given quencher concentration, fa is the fractional degree of fluorescence, and Kd is the dissociation constant.

HsCKα1 [3] = target: T2, HsCKα1 (Homo sapiens, UniProt P35790); experiment: Kd by tryptophan fluorescence quenching; type: binding; conditions: 25 °C, enzyme 1 μM
T2 construct: made in house
T2 sequence (P35790 whole entry): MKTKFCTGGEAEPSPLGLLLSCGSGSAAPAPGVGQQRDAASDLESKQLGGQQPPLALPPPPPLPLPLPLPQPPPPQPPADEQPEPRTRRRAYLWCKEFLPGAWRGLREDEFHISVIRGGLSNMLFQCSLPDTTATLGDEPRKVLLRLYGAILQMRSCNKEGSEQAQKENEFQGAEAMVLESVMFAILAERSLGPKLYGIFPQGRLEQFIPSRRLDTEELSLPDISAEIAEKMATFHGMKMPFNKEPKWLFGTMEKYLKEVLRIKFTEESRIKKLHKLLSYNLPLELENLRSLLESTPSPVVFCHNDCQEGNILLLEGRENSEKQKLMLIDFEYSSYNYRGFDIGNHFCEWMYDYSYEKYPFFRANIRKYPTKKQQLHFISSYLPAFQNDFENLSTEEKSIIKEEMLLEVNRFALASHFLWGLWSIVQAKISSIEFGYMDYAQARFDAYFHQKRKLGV
Protocol: as §1

PfCK [4] = target: T1, PfCK; experiment: IC50 determination, spectrophotometric CK/EK enzyme assay; type: biochemical; conditions: for IC50: 0.5 mM each substrate
Protocol: (§2) A continuous spectrophotometric 96-well plate assay was established for CK and EK activity based on an assay described. […] The reaction was initiated by addition of enzyme or substrate, as appropriate, and the rate of reaction was monitored by following the decrease in absorbance at 341 nm for 10 min at room temperature using a Thermo Multiska spectrophotometer. Experiments were carried out to ensure that coupling enzymes were not rate-limiting under any of the conditions used and control experiments lacking substrates and/or enzyme were carried out to correct for any background rate.
(§3) The enzyme was pre-incubated for 5 min with varying concentrations of inhibitor prior to reaction being started by addition of 0.5 mM each substrate. The IC50 values were estimated using Grafit 5 (Erithacus Software Ltd).

HsCKα1 [5] = target: T2, HsCKα1; experiment: as above; type: biochemical; conditions: 0.5 mM each substrate
Protocol: as §2, §3

PfEK = target: T3, PfEK (Plasmodium falciparum, UniProt Q8IIB7); experiment: IC50 determination, spectrophotometric EK enzyme assay; type: biochemical, P. falciparum; conditions: for IC50: Etn as substrate, 0.5 mM each substrate
T3 sequence (Q8IIB7 2-420): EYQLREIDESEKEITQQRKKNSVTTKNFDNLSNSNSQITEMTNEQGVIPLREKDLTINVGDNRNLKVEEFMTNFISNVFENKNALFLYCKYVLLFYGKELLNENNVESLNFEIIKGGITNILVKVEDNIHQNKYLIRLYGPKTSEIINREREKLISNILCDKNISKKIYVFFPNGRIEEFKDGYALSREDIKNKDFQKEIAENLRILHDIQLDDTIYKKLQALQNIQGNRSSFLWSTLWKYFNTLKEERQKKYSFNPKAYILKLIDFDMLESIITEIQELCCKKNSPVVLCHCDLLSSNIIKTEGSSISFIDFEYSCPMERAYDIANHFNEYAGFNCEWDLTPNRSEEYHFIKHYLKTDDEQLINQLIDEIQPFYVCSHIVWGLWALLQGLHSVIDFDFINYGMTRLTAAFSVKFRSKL
Protocol: as §2, §3

P. falciparum 3D7 [6] = experiment: microscopy of tightly synchronized asexual blood stage culture; type: cell-based, Plasmodium falciparum; conditions: EC90; synchronized ring stage parasites 6–12 hours post invasion
Protocol: P. falciparum 3D7 was cultured according to standard methods, and a 6 hours window was achieved by a combination of Percoll and sorbitol synchronizations. Briefly, schizonts and late trophozoites were isolated from earlier stages according to their density by centrifugation on a continuous gradient of 60% Percoll. The resulting schizonts were allowed to invade uninfected red blood cells for 6 hours and newly infected red blood cells were subjected to a 5% sorbitol treatment for 10 minutes at 37 °C. […] Thin blood smears were Giemsa stained every 6 hours until an entire intraerythrocytic cycle was completed.

[7] = Etn as substrate, read-out: IC50 PfCK, Etn
[8] = read-out: IC50 PfCK, Cho, Cho as substrate
[9] = Etn as substrate, read-out: IC50 HsCK, Etn
[10] = read-out: IC50 HsCK, Cho, Cho as substrate

CN(C)c1cc[n+](Cc2ccc(-c3ccc(C[n+]4ccc(N5CCCC5)cc4)cc3)cc2)cc1.[Br-].[Br-] [BR23]
reduction of endogenous PE species (P. falciparum 3D7 [1]; ES-MS-MS parents of 196 m/z, internal PE standard): > 90%
effect on level of PC species (P. falciparum 3D7 [1]): do not affect
effect on endogenous PE species (in words) (P. falciparum 3D7 [1]): significant reduction
Kd (PfCK [2]): 1400 nM
Kd (HsCKα1 [3]): 521 ± 200 nM
inhibition towards PfCKs choline kinase activity (in words) (PfCK [4]; Cho as substrate): moderate inhibition
IC50 (PfCK [4]; [7]): 12000 nM
IC50 (PfCK [4]; [8]): 276000 nM
IC50 (HsCKα1 [5]; [9]): 230 nM
IC50 (HsCKα1 [5]; [10]): 580 nM
inhibition towards PfEK (in words) (PfEK): neither BR23 nor BR25 showed any inhibition
IC50 (PfEK): > 500000 nM
effect on parasite development (P. falciparum 3D7 [6]): arrest of parasite development

CN(C)c1cc[n+](Cc2ccc(CCCCc3ccc(C[n+]4ccc(N5CCCC5)cc4)cc3)cc2)cc1.[Br-].[Br-] [BR25]
effect on level of PC species (P. falciparum 3D7 [1]): do not affect
effect on endogenous PE species (in words) (P. falciparum 3D7 [1]): almost complete loss
affinity for PfCK relative to BR23 (PfCK [2]; ratio of Kds): 3 fold
Kd (PfCK [2]): 415 ± 81 nM
Kd (HsCKα1 [3]): 352 ± 20 nM
inhibition towards PfCKs choline kinase activity (in words) (PfCK [4]; Cho as substrate): moderate inhibition
IC50 (PfCK [4]; [7]): 6000 nM
IC50 (PfCK [4]; [8]): 103000 nM
IC50 (HsCKα1 [5]; [9]): 180 nM
IC50 (HsCKα1 [5]; [10]): 560 nM
inhibition towards PfEK (in words) (PfEK): neither BR23 nor BR25 showed any inhibition
IC50 (PfEK): > 500000 nM
effect on parasite development (P. falciparum 3D7 [6]): arrest of parasite development
